Experiments:
PDE type V = target: T1, PDE type V (Canis lupus familiaris, UniProt O77746); test: PDE inhibiting activity, type V; assay type: biochemical, dog; conditions: PDE purified from canine aorta; 1 µM substrate cGMP or cAMP; read-out: Inhibition Activity IC50 (µM) Type V
T1 construct: By elution with a sodium chloride gradient (0 - 0.4 M), PDE types V and III were separated from the other isozymes; from tissue; host or cells: canine aorta
Experimental: The canine aorta was minced and homogenized with a Waring Blender and a glass homogenizer in six volumes of a Tris-HCl buffer solution (pH 7.5, 20 mM) containing 2 mM magnesium acetate, 5 mM ethylenediaminetetraacetic acid (EDTA), 100 µg/mL of phenylmethylsulforyl fluoride and 15 mM 2-mercaptoethanol (2-ME), and centrifuged at 1200 x g for 30 min. […] By elution with a sodium chloride gradient (0 - 0.4 M), PDE types V and III were separated from the other isozymes. […] The resulting precipitated fraction was similarly applied to the DEAE-trisacryl column and eluted by a sodium chloride gradient (0 - 0.4 M) so as to separate PDE type I.
Specifically, a purified PDE sample was added to 50 mM Tris-HCl buffer solution (pH 7.5) containing 1 µM of substrate cGMP or cAMP (containing tritium-labelled cGMP or cAMP), 1 mM EGTA and 2 mM magnesium acetate. For PDE activity measurement, enzymatically produced 5' GMP or 5' AMP was further hydrolyzed into guanosine or adenosine with snake venom and separated from the substrate by means of an ion-exchange resin (Dowex 1-X2), followed by measuring with a scintillation counter. […] The final concentration of DMSO was adjusted to be no more than 2% in consideration of the effect on PDE activity.

[1] = tested on: smooth muscle of cavernous body of rabbits; test: Enhancement of nitroprusside relaxation of isolated cavernous body strips; conditions: relaxation by 1 µM nitroprusside compared with solvent
Experimental: Rabbits were anesthetized by an intravenous injection of 40-50 mg/kg of pentobarbital (Nembutal™ manufactured by Dainippon Pharmaceutical Co., Ltd.), blood was drained out by incision of carotid artery, and penis was taken out and placed in an ice-cooled nutrient solution (Krebs bicarbonate containing 118 mM of NaCl, 4.7 mM of KCl, 1.2 mM of KH2PO4, 1.2 mM of MgSO4.7H2O, 1.5 mM of CaCl2, 25 mM of NaHCO3, 11 mM of glucose and 0.023 mM of EDTA·2Na). After the tissues around the albuginea were incised in a nutrient solution, the albuginea was incised to prepare cavernous body of the penis. The cavernous body was cut and both ends of the strips of about 1 cm length were ligated by nylon yarn. One end was fixed to a supporting rod, transferred into a 20-ml Magnus tube which was filled with the nutrient solution, passed with a mixed gas of 95% oxygen and 5% carbon dioxide and kept at 37 °C while another end of the strip was connected to an isometric transducer (TB-611T; NIHON KOHDEN CORP.) placed on the upper area and a stress load of about 2 g was applied. After stabilization of 60 minutes or longer, strips were contracted with 10 µM of phenylephrine in the presence of 5 µM of guanetidine and 1 µM of atropine and, after stabilization, 1 µM or 100 µM of nitroprusside was added whereby relaxation by nitroprusside was ascertained. […] Rate of relaxation by 1 µM of nitroprusside after addition of the sample was compared with that after addition of the solvent and the increasing rate was calculated. […]

[2] = Absorption upon intranasal administration to rats; assay type: in vivo, Male wistar rats
From the text: Male wistar rats (eight weeks age) were anesthetized by intraperitoneal injection of 1 g/kg of urethane. Neck was incised to expose a trachea and polyethylene tube (SP 120; Natsume Seisakusho) was inserted into the trachea. Then a part of esophagus was opened by cutting and a polyethylene tube of the same diameter was inserted to the direction of choana and the end was tightly sealed with absorbent cotton and adhesive. In order to prevent a leakage of drug solution from nasopalatine canal, said canal of upper chin opening to mouth was closed by synthetic adhesive. The drug was dissolved in a 0.1% tartaric acid solution and the drug of 500 µl/kg was administered by a micropipette from outer nasal cavity followed by closing both outer nasal cavities immediately. As a control, the rat to which the drug was intravenously injected was prepared. After the injection; aliquot of blood was collected from time to time from jugular vein using a heparin-treated syringe and centrifuged to give plasma. Certain amount of the resulting plasma was collected, extracted with tert-butyl-methyl-ether three times, and the organic phase was evaporated to dryness and dissolved in the initial solvent for HPLC. A certain amount thereof was injected into an HPLC connected to an ultraviolet absorption detector and the drug concentration in the plasma was measured by reversed phase column. Time for arriving the maximum blood concentration (Tmax), mean residence time (MRT) and mean absorption time (MAT) were calculated from the measured value.

[3] = Absorption by percutaneous administration in rats; assay type: in vivo; conditions: hairless rats, Dose 10 mg/kg
Experimental: Abdominal skin of hairless rats (eight weeks age, Nippon SLC) was wiped with 70% ethanol, and 0.25 ml/kg of a drug solution (40 mg/ml DMSO) was applied to an area of 8 cm^2 (2 x 4 cm) and the applied area was coated with a film coating agent (Permiaid S, Nitto Medical) and fixed with an adhesive bandage (Elastopore, Nichiban). After application of the drug solution, aliquot of blood was collected from time to time using a heparin-treated syringe from jugular vein and centrifuged to give plasma. Aliquot plasma was extracted with tert-butyl-methyl-ether three times, and the organic phase was evaporated to dryness and dissolved in the initial solvent for HPLC. A certain amount thereof was injected into a HPLC connected to an ultraviolet absorption detector and the drug concentration in the plasma was measured by means of a reversed phase column. Pharmacokinetic parameters were calculated from the measured data by the same manner as in Experiment 3.

male wistar rats = test: Toxicity test, oral administration for four days; conditions: 100 mg/kg/day orally for four days
[4] = male, Wistar, rat, plasma, inhaled or intranasal, intranasal, Dose 0.3 mg/kg

CS(=O)(=O)O.O=c1c(Cc2cccnc2)cn2c3cc(Br)ccc3c3cc(OCCCO)cc1c32 [Example 52, 9-bromo-2-(3-hydroxypropyloxy)-5-(3-pyridylmethyl)-4H-pyrido[3,2,1-jk]carbazol-4-one methanesulfonate]
IC50 (PDE type V): 0.0057 µM
Enhancing Rate of Relaxation (%) ([1]; Final Added Amount 100 nM): 90.8%
Enhancing Rate of Relaxation (%) ([1]; Final Added Amount 1000 nM): 190.9%
MRT as compared with oral administration ([2]; intranasal administration): same
Tmax as compared with oral administration ([2]; intranasal administration): same or shortened
MAT ([2]; intranasal, Dose 0.3 mg/kg): 1 to 2 h
bioavailability ([2]; male, Wistar, rat, plasma, inhaled or intranasal, intranasal administration): ~100%
MRT [2, 4]: 2 to 3 h
Tmax [2, 4]: 12 to 30 min
MAT [3]: 7.9 h
MRT ([3]; rat, plasma, topical): 8.5 h
Tmax ([3]; rat, plasma, topical): 1 h
abnormal change in body weight and general symptoms (male wistar rats): no abnormal change
dead case (male wistar rats; until the next morning of the completion of the administration): no dead case

— EP0992240A1, “THERAPEUTIC AGENT FOR ERECTION FAILURE” (MOCHIDA PHARMACEUTICAL CO., LTD., priority 1997, dated 1998)
